Assays:
glutaminyl cyclase (QC) = glutaminyl cyclase (QC) (Homo sapiens, UniProt Q16769); assay: Inhibitor assay for glutaminyl cyclase (QC) activity; conditions: for Res. Act. (%): rapid test of QC-inhibition: 4 mM inhibitor, substrate concentration at 1 KM
Chain of glutaminyl cyclase (QC) (Q16769 29-361): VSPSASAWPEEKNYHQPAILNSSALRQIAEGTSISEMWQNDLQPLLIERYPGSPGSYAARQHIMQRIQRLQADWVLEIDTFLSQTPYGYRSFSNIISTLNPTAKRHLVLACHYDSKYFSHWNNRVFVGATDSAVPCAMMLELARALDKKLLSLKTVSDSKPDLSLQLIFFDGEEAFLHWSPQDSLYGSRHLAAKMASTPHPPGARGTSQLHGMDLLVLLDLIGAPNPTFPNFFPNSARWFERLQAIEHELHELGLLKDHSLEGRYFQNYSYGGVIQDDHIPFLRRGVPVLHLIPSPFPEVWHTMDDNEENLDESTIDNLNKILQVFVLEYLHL
Procedure: Excitation/emission wavelengths were 320/410 nm. The assay reactions were initiated by addition of glutaminyl cyclase.
Reactions were carried out at 30° C. utilizing the NOVOStar reader for microplates (BMG labtechnologies). […] Excitation/emission wavelengths were 380/460 nm. The assay reactions were initiated by addition of glutaminyl cyclase. […] The kinetic data were evaluated using GraFit software.
The initial velocities were evaluated and the enzymatic activity was determined from a standard curve of ammonia under assay conditions. All samples were measured at 30° C., using either the [sequence]luor Plus or the Sunrise (both from TECAN) reader for microplates. Kinetic data was evaluated using GraFit software.
For inhibitor testing, the sample composition was the same as described above, except of the putative inhibitory compound added. […] For detailed investigations of the inhibition and determination of Ki-values, influence of the inhibitor on the auxiliary enzymes was investigated first.

Row | SMILES | Res. Act. (%) (glutaminyl cyclase (QC)) | Ki (glutaminyl cyclase (QC)) | melting point | further results
1 | S=C(NCCCn1ccnc1)NCc1ccc2c(c1)OCO2 [Example 47] | 42.7% | – | – | –
2 | S=C(Cc1ccccc1)NCCCn1ccnc1 [Example 113] | – | 4.62 µM | – | –
3 | CC(C)(C)NC(=S)NCCCn1ccnc1 | – | – | 147 to 147.5 °C | –
4 | COC(=O)c1ccc(NC(=S)NCCCn2ccnc2)cc1 [Example 9] | – | 1.19 µM | – | –
5 | S=C(NCCCn1ccnc1)C1(c2ccc(Cl)cc2)CCC1 | – | – | 137.5 to 139 °C | –
6 | S=C(NCCCn1ccnc1)Nc1ccc(I)cc1 [Example 38] | 23.5% | 2.12 µM | – | –
7 | COc1cc(NC(=S)NCCCn2ccnc2)cc(OC)c1 | – | – | 142 to 143 °C | –
8 | C[C@@H](C(=S)NCCCn1ccnc1)c1ccccc1 | – | – | 82 to 82.5 °C | –
9 | N#CN=C(NCCCn1ccnc1)Nc1ccc2c(c1)OCO2 [Example 59] | – | 0.73 µM | – | –
10 | C[C@H](C(=S)NCCCn1ccnc1)c1ccccc1 | – | – | 82.5 to 83.5 °C | –
11 | COc1ccc(NC(=S)NCCCn2ccnc2)c(OC)c1 | – | – | 120 to 120.5 °C | –
12 | CSc1ccc(NC(=S)NCCCn2ccnc2)cc1 [Example 33, 1-(3-(1H-imidazol-1-yl)propyl)-3-(4-(methylthio)phenyl)thiourea] | – | – | 140 to 140.5 °C | –
13 | CCc1ccc(NC(=S)NCCCn2ccnc2)cc1 | – | – | 100 to 100.5 °C | –
14 | COc1ccc(NC(=S)NC[C@H](C)Cn2ccnc2)cc1OC | – | – | 150.5 to 151.5 °C | –
15 | COc1cc(NC(=NC#N)NCCCn2ccnc2)cc(OC)c1OC [Example 60] | – | 0.88 µM | – | –
16 | COc1cccc(NC(=S)NCCCn2ccnc2)c1 | – | – | 89.5 to 90 °C | –
17 | N#CN=C(NCCCn1ccnc1)NCc1ccccc1 [Example 68] | 22.5% | 8.17 µM | – | –
18 | COc1ccc(NC(=S)NCCn2ccnc2)cc1OC | – | – | 157.5 to 159 °C | –
19 | S=C(NCCCn1ccnc1)Nc1ccc2c(c1)OCO2 | – | – | 115 to 115.6 °C | –
20 | S=C(NCCCn1ccnc1)NCC1CCCO1 (centres unmarked) [Example 46] | 46.0% | – | – | IC50 (glutaminyl cyclase (QC)): 12.8 µM

Row | SMILES | Res. Act. (%) (glutaminyl cyclase (QC)) | Ki (glutaminyl cyclase (QC)) | melting point | further results
21 | S=C(Cc1cccs1)NCCCn1ccnc1 [Example 114] | – | 3.29 µM | – | –
22 | FC(F)(F)c1ccc(NC(=S)NCCCn2ccnc2)cc1 [Example 8, 1-(3-(1H-imidazol-1-yl)propyl)-3-(4-(trifluoromethyl)phenyl)thiourea] | 38.5% | 3.93 µM | 154.5 to 155 °C | –
23 | CCC(C(=S)NCCCn1ccnc1)c1ccccc1 (centres unmarked) [Example 117] | – | 3.57 µM | – | –
24 | COc1ccc(NC(=S)CCCCn2ccnc2)cc1OC | – | – | 128 to 128.5 °C | –
25 | S=C(NCCCn1ccnc1)NC1CCCCCCC1 [Example 44] | 33.1% | – | – | IC50 (glutaminyl cyclase (QC)): 9.1 µM
26 | S=C(NCCCn1ccnc1)NCCN1CCOCC1 [Example 48] | 55.0% | – | – | IC50 (glutaminyl cyclase (QC)): 13.3 µM
27 | CN=C(NCCCn1ccnc1)Nc1ccc(OC)c(OC)c1 [Example 93] | – | 3.62 µM | – | –
28 | COc1ccc(NC(=S)NC[C@@H](C)Cn2ccnc2)cc1OC | – | – | 155 to 157.5 °C | –
29 | CCCCCCCOc1ccc(NC(=O)NCCCn2ccnc2)cc1 [Example 99] | 5.6% | – | – | IC50 (glutaminyl cyclase (QC)): 9.9 µM
30 | S=C(NCCCn1ccnc1)Nc1ccc(-c2cnco2)cc1 [Example 17] | 3.64% | 0.86 µM | – | –
31 | S=C(NCCCn1ccnc1)Nc1ccc2c(c1)OCCO2 | – | – | 103 to 103.5 °C | –
32 | O=S(=O)(c1ccc(NC(=S)NCCCn2ccnc2)cc1)N1CCCCC1 [Example 20] | 8.5% | 2.27 µM | – | –
33 | Cc1ccc(NC(=NC#N)NCCCn2ccnc2)cc1 [Example 75] | – | 1.34 µM | – | –
34 | COc1ccc(C2(C(=S)NCCCn3ccnc3)CC2)cc1 | – | – | 129 to 129.5 °C | –
35 | COc1ccc(CNC(=S)NCCCn2ccnc2)cc1 [Example 29] | – | 3.93 µM | – | –
36 | CNC(=S)NCCCn1ccnc1 | – | – | 122 to 122.5 °C | –
37 | COc1ccc(C2(C(=S)NCCCn3ccnc3)CCCCC2)cc1 | – | – | 162.5 to 164 °C | –
38 | CCCCNC(=S)NCCCn1ccnc1 [Example 43] | 53.8% | – | – | IC50 (glutaminyl cyclase (QC)): 14 µM
39 | N#Cc1ccc(NC(=S)NCCCn2ccnc2)cc1 [Example 22] | 9.0% | 2.89 µM | – | –
40 | CCOc1ccc(NC(=S)NCCCn2ccnc2)cc1 [Example 27, 1-(3-(1H-imidazol-1-yl)propyl)-3-(4-ethoxyphenyl)thiourea] | 7.2% | – | – | –

Row | SMILES | Res. Act. (%) (glutaminyl cyclase (QC)) | Ki (glutaminyl cyclase (QC)) | melting point | further results
41 | COc1ccc(NC(=S)NCc2ccccc2Cn2ccnc2)cc1OC [Example 103] | 16.27% | 4.84 µM | – | –
42 | O=C(NCCCn1ccnc1)Nc1cc(F)cc2c1OCOC2 [Example 97] | 19.0% | – | – | IC50 (glutaminyl cyclase (QC)): 12 µM
43 | COc1ccc(NC(=S)NCC2(Cn3ccnc3)CC2)cc1OC | – | – | 166.5 to 168.5 °C | –
44 | CN(C)c1ccc(NC(=S)NCCCn2ccnc2)cc1 | – | – | 146.5 to 147 °C | –
45 | COc1ccc(NC(=O)NCCCn2ccnc2)cc1OC1CCCC1 [Example 98] | 2.87% | 0.62 µM | – | –
46 | S=C(NCCCn1ccnc1)NCc1ccccc1 | – | – | 127 to 128 °C | –
47 | COc1ccc(NC(=S)NCc2ccc(Cn3ccnc3)cc2)cc1OC [Example 105] | – | 1.86 µM | – | –
48 | COc1ccc(NC(=N)NCCCn2ccnc2)cc1OC [Example 92] | – | 204 µM | – | –
49 | COc1ccc(NC(=S)NCc2cccc(Cn3ccnc3)c2)cc1OC [Example 104] | – | 3.52 µM | – | –
50 | COc1ccc(NC(=S)NCCCn2ccnc2)cc1 [Example 11, 1-(3-(1H-imidazol-1-yl)propyl)-3-(4-methoxyphenyl)thiourea] | 9.7% | – | – | –
51 | COc1cc(NC(=S)NCCCn2ccnc2)cc(OC)c1OC | – | – | 124.5 to 125.5 °C | –
52 | COc1ccc(NC(=S)NCCCCn2ccnc2)cc1OC | – | – | 114.5 to 116 °C | –
53 | COc1ccc(CC(=S)NCCCn2ccnc2)cc1OC | – | – | 148 to 150 °C | –
54 | COc1cc(NC(=NC#N)NCCCn2ccnc2)cc(OC)c1 [Example 57] | – | 0.91 µM | – | –
55 | CC(=O)c1ccc(NC(=S)NCCCn2ccnc2)cc1 [Example 10, 1-(3-(1H-imidazol-1-yl)propyl)-3-(4-acetylphenyl)thiourea] | 17.0% | 1.7 µM | 170 to 171 °C | –
56 | CCNC(=O)NCCCn1ccnc1 [Example 96] | – | 19.2 µM | – | –
57 | S=C(NCCCn1ccnc1)NCc1ccco1 [Example 45] | 61.4% | – | – | IC50 (glutaminyl cyclase (QC)): 10 µM
58 | S=C(NCCCn1ccnc1)C1(c2ccc(Cl)cc2)CCCC1 | – | – | 140 to 141 °C | –
59 | S=C(NCCCn1ccnc1)Nc1ccc(Br)cc1 [Example 39] | – | 2.52 µM | – | –

Reference: US7897633B2, “Inhibitors of glutaminyl cyclase” (Probiodrug AG, priority 2004, dated 2011)
